According to PMC3979416 (The Journal of Biological Chemistry, 2014):
Like-named read-outs stand apart in the source and are kept apart here.

Assays:
[1] = biological target: BRD4; assay: TR-FRET displacement of the H4 peptide by the JQ1-TAMRA probe; type: binding, human; settings: data not shown
[2] = system: BRD4 wild type; assay: FRAP of GFP-BRD4 wild type with JQ1; type: cell-based, human; settings: U2OS cells, 1 μM JQ1 1 h before imaging
Method: For the photobleaching experiments we used full-length human BRD4 cDNA (RefSeq NM_058243.2) cloned into the pcDNA6.2/N-EmGFP-DEST plasmid (Invitrogen) by the Gateway technology (Invitrogen) to create a chimeric green fluorescent protein (GFP)/wild-type BRD4 expression construct. […] The synthesized DNA fragments were cloned into the pTT5 ([49]) destination vector using a lambda site-specific recombination system (LR-recombination, Gateway Technology, Invitrogen). Plasmid DNA was prepared using the QIAprep Spin Miniprep kit (Qiagen).
FRAP studies were performed using a protocol modified from previous work ([17], [55]). In brief, U2OS cells were reverse-transfected (Lipofectamine 2000, Invitrogen) with mammalian expression constructs encoding chimeric GFP-BRD4 (wild type or mutants). […] The average intensity at each imaging time point was measured for three regions of interest: the bleached region (It), the total cell nucleus (Tt), and a random region outside of the cell for background subtraction (BG). […] The base line was normalized to zero, and the prebleach was normalized to 1. Normalized data were imported into GraphPad Prism 6.0, and half-times of recovery (t½) were calculated from individual single exponential curve fits for each cell and presented as the mean for each group. p values were calculated using an unpaired t test.

[3] = system: BRD4 BD1 mutants; assay: Thermal shift assay with JQ1, mutants as a group; type: binding, human; settings: 100 μM JQ1
Method: In a typical TSA, 0.4 μg of BRD4 BD1 protein were mixed with 5× Sypro Orange (Molecular Probe) and adjusted to a final volume of 5 μl with 100 mM HEPES buffer, pH 7.5 (Applichem), and 150 mM NaCl (Sigma). […] To protect samples from evaporation, they were overlaid with 1 μl of silicone oil DC200 (Sigma). […] For data analysis, melting curves (fluorescence intensity changes at increasing temperatures) were fitted using a first derivative method ([51]) to determine the melting point Tm and the unfolding enthalpy ΔHu using the evaluation software provided by the manufacturer of the instrument. A series of thermal melting curves was collected in the presence of varying inhibitor concentrations.
(§1) Standard free energy of binding (ΔG°) and entropy (ΔS°) were calculated with the equations ΔG° = −RTln(1/KD°) and −TΔS° = ΔG° × ΔH°b. To facilitate comparisons dΔG° was also calculated: dΔG° = ΔG° (mt) − ΔG° (WT).

[4] = system: BRD4 BD1 mutants; type: cell-based, human
Method: (§2) For the cellular stabilization assays, the codon-optimized sequence of the wild-type and mutant versions of BRD4 BD1 (amino acids 44–166) flanked by an N-terminal His6 tag and a C-terminal FLAG tag and by 5′ and 3′ site-specific attachment sites for recombination using the Gateway technology (Invitrogen) were prepared by total DNA synthesis (GeneArt). The synthesized DNA fragments were cloned into the pTT5 ([49]) destination vector using a lambda site-specific recombination system (LR-recombination, Gateway Technology, Invitrogen). Plasmid DNA was prepared using the QIAprep Spin Miniprep kit (Qiagen).
(§3) HEK293–6E cells (Yves Durocher, National Research Council Canada) were grown in suspension with gentle shaking in FreeStyle F17 medium (Invitrogen) containing 4 mM L-alanyl-L-glutamine (BioChrom AG) and 0.1% Pluronic (Invitrogen). For transfection with DNA, 10 ml of cell suspension at a density of 10^6 cells/ml were prepared. […]
(§4) Plates were incubated at room temperature in the dark for 2 h. Time-resolved fluorescence was measured with a PHERAstar FS microplate reader (BMG Labtech) using the homogeneous time-resolved fluorescence module (excitation 337 nm, emission 1: 620 nm; emission 2: 665 nm). […]

[5] = biological target: BRD4 BD1 wild type; settings: pH 7.5
[6] = biological target: T1, BRD4 BD1 W81A (Homo sapiens, UniProt O60885, W81A)
[7] = biological target: T2, BRD4 BD1 P82A (Homo sapiens, UniProt O60885, P82A)
[8] = biological target: T3, BRD4 BD1 L94A (Homo sapiens, UniProt O60885, L94A)
[9] = biological target: T4, BRD4 BD1 Y139F (Homo sapiens, UniProt O60885, Y139F)
[10] = biological target: T5, BRD4 BD1 D144A (Homo sapiens, UniProt O60885, D144A)
[11] = biological target: T6, BRD4 BD1 D145A (Homo sapiens, UniProt O60885, D145A)
[12] = biological target: T7, BRD4 BD1 I146A (Homo sapiens, UniProt O60885, I146A)
[13] = biological target: T8, BRD4 BD1 M149A (Homo sapiens, UniProt O60885, M149A)
[14] = system: BRD4 BD1 mutants
Method: After 30 min of incubation at room temperature, the plates were measured in a Tecan M1000 plate reader using its FP module and excitation/emission wavelengths of 530 and 570 nm, respectively. For KD determinations the background-corrected polarization values were plotted against the concentrations of BRD4, and the data were fitted to a one-site binding equation: Y = Bmax × X/(KD + X), where Y is the specific binding, and Bmax is the maximal binding, using the GraphPad Prism software. Free energy of binding ΔG was calculated as described above.

[15] = system: BRD4 BD1 wild type; settings: WT, TSA
Method: (§5) In a typical TSA, 0.4 μg of BRD4 BD1 protein were mixed with 5× Sypro Orange (Molecular Probe) and adjusted to a final volume of 5 μl with 100 mM HEPES buffer, pH 7.5 (Applichem), and 150 mM NaCl (Sigma). […] To protect samples from evaporation, they were overlaid with 1 μl of silicone oil DC200 (Sigma). Melting curves were recorded using a ThermoFluor system (Johnson and Johnson Pharmaceutical Research and Development) after heating the samples from 25 up to 95 °C while measuring the fluorescence intensity of the dye with the excitation and emission filters set to 465 and 590 nm, respectively. For data analysis, melting curves (fluorescence intensity changes at increasing temperatures) were fitted using a first derivative method ([51]) to determine the melting point Tm and the unfolding enthalpy ΔHu using the evaluation software provided by the manufacturer of the instrument. […] The heat capacity of protein unfolding (ΔCpu) was assumed to be independent of the temperature and estimated from the size of the protein using the equation ([52]), ΔCpu = −119 + 0.20(−907 + 93(#residues)). […] ([53]).
as §1

[16] = biological target: T1, BRD4 BD1 W81A; settings: TSA
Method: as §5, §1

[17] = biological target: T2, BRD4 BD1 P82A; settings: TSA
Method: as §5, §1

[18] = biological target: T3, BRD4 BD1 L94A; settings: TSA
Method: as §5, §1

[19] = system: BRD4 BD1 Y97F; settings: TSA, 100 μM JQ1, pH 7.5, mean ± S.D.
Method: as §5, §1

[20] = biological target: T4, BRD4 BD1 Y139F; settings: TSA
Method: as §5, §1

[21] = system: BRD4 BD1 N140A; settings: TSA, 100 μM JQ1, pH 7.5, mean ± S.D.
Method: as §5, §1

[22] = biological target: T5, BRD4 BD1 D144A; settings: TSA
Method: as §5, §1

[23] = biological target: T6, BRD4 BD1 D145A; settings: TSA
Method: as §5, §1

[24] = biological target: T7, BRD4 BD1 I146A; settings: TSA
Method: as §5, §1

[25] = biological target: T8, BRD4 BD1 M149A; settings: TSA
Method: as §5, §1

[26] = biological target: BRD4 BD1 wild type; settings: WT, TR-FRET competition, 50 nM protein, 200 nM biotinylated H4 peptide; IC50 expressed as KD; mean ± S.D.
Method: as §1
(§6) The experiments were performed in 384-well black small volume microtiter plates (Greiner) in a buffer composed of 50 mM Hepes, pH 7.5 (Applichem), 50 mM NaCl (Sigma), 400 mM KF (Sigma), 0.5 mM CHAPS (Sigma), and 0.05% BSA (Sigma) in a final volume of 5–10 μl (n = 4). BRD4 (100 nM) protein domains were mixed with 200 nM concentrations of the biotin-labeled histone peptides and incubated for 30 min at room temperature. The protein-peptide complexes at equilibrium were then detected with 5 nM Eu^3+ cryptate-conjugated streptavidin (CisBio) and 10 nM anti-His6-XL665 (Cisbio). To analyze the binding of mutated histone peptides at different ionic strengths, streptavidin Eu^3+ chelate (W1024, PerkinElmer Life Sciences) was used instead of cryptate as fluorescence donor, and KF was replaced by NaCl at concentrations of 20, 100, and 500 mM. After 3 h of further incubation at 4 °C, the plates were measured in a PheraStar reader (BMG Labtech) using the homogeneous time-resolved fluorescence module (excitation, 337 nm with 10 flashes; emission, 620 and 665 nm). […]

[27] = biological target: T2, BRD4 BD1 P82A; settings: TR-FRET competition
Method: as §1, §6

[28] = biological target: T3, BRD4 BD1 L94A; settings: TR-FRET competition
Method: as §1, §6

[29] = biological target: T4, BRD4 BD1 Y139F; settings: TR-FRET competition
Method: as §1, §6

[30] = biological target: T5, BRD4 BD1 D144A; settings: TR-FRET competition
Method: as §1, §6

[31] = biological target: T6, BRD4 BD1 D145A; settings: TR-FRET competition
Method: as §1, §6

[32] = biological target: T7, BRD4 BD1 I146A; settings: TR-FRET competition
Method: as §1, §6

[33] = system: BRD4 BD1 mutants; remark: listed apart in the source
Method: The TR-FRET binding assay used to measure the interaction of BRD4 with acetylated peptides was a modified version of a previously described protocol ([18]). The experiments were performed in 384-well black small volume microtiter plates (Greiner) in a buffer composed of 50 mM Hepes, pH 7.5 (Applichem), 50 mM NaCl (Sigma), 400 mM KF (Sigma), 0.5 mM CHAPS (Sigma), and 0.05% BSA (Sigma) in a final volume of 5–10 μl (n = 4). BRD4 (100 nM) protein domains were mixed with 200 nM concentrations of the biotin-labeled histone peptides and incubated for 30 min at room temperature. The protein-peptide complexes at equilibrium were then detected with 5 nM Eu^3+ cryptate-conjugated streptavidin (CisBio) and 10 nM anti-His6-XL665 (Cisbio). To analyze the binding of mutated histone peptides at different ionic strengths, streptavidin Eu^3+ chelate (W1024, PerkinElmer Life Sciences) was used instead of cryptate as fluorescence donor, and KF was replaced by NaCl at concentrations of 20, 100, and 500 mM.
The plates were then processed as described above. IC50 values were calculated by plotting the log [competitor/inhibitor] versus mean normalized response data from at least two independent experiments measured in triplicate and fitting it to a four-parameter equation with variable Hill slope, Y = bottom + (top-bottom)/(1 + 10^(logIC50 − ^X^) × Hill slope)), using the GraphPad Prism software. […]

[34] = system: BRD4 BD1 wild type
Method: as §2, §3, §4

[35] = system: BRD4 BD1 Y97F; settings: read-out: EC50 (protein stabilization)
Method: as §2, §3, §4

[36] = system: BRD4 BD1 N140A; settings: read-out: EC50 (protein stabilization)
Method: as §2, §3, §4

[37] = system: Patient-derived NMC tumors; settings: xenograft, ref [17], [26]; cited from earlier work
[38] = 100 μM JQ1, pH 7.5, mean ± S.D.

SMILES: Cc1sc2c(c1C)C(c1ccc(Cl)cc1)=N[C@@H](CC(=O)NCCCCCNC(=O)c1ccc(-c3c4ccc(=[N+](C)C)cc-4oc4cc(N(C)C)ccc34)c(C(=O)[O-])c1)c1nnc(C)n1-2 [JQ1-TAMRA, 5-{[5-({[(6S)-4-(4-chlorophenyl)-2,3,9-trimethyl-6H-thieno[3,2-f][1,2,4]triazolo [4,3-a][1,4]diazepin-6-yl]acetyl}amino)pentyl]carbamoyl}-2-[6-(dimethylamino)-3-(dimethyliminio)-3H-xanthen-9-yl]benzoate]
- KD (in words) [1]: comparable with that of JQ1

SMILES: Cc1sc2c(c1C)C(c1ccc(Cl)cc1)=N[C@@H](CC(=O)OC(C)(C)C)c1nnc(C)n1-2 [JQ1, tert-butyl[(6S)-4-(4-chlorophenyl)-2,3,9-trimethyl-6H-thieno[3,2-f][1,2,4]triazolo[4,3-a][1,4]diazepin-6-yl]acetate]
- half-fluorescence recovery (in words) [2]: enhanced half-fluorescence recovery
- stabilization by JQ1 (in words) ([3]; P82A, L94A, and I146A): moderate stabilization profile
- stabilization by JQ1 (in words) ([3]; W81A, Y97F, N140A, and M149A): least stabilized by JQ1
- stabilization by JQ1 (in words) ([3]; Y139F, D144A, and D145A): as strongly as wild-type BD1
- EC50 increase vs wild type [4]: from 7-fold to >100-fold
- Kd [5]: 14.5 ± 3.3 nM
- ΔG [6]: -8.29 kcal/mol
- ΔG [7]: -9.06 kcal/mol
- ΔG [8]: -9.66 kcal/mol
- JQ1 binding compared with wild type (in words) [9]: not significantly different compared with wild-type BRD4 BD1
- ΔG [9]: -10.8 kcal/mol
- ΔG [10]: -9.89 kcal/mol
- JQ1 binding compared with wild type (in words) [11]: not significantly different compared with wild-type BRD4 BD1
- ΔG [11]: -10.6 kcal/mol
- ΔG [12]: -8.7 kcal/mol
- ΔG [13]: -8.96 kcal/mol
- effect of mutation on JQ1 binding (in words) [14]: strongest effects
- ΔTm ([15]; 100 μM JQ1, 100 mM HEPES pH 7.5, 150 mM NaCl, mean ± S.D.): 9.6 ± 0.6 °C
- Kd ([15]; extrapolated standard KD): 1 nM
- ΔG° [16]: -10.7 kcal/mol
- −TΔS° [16]: -8.53 kcal/mol
- ΔTm [16, 38]: 2.8 ± 0.4 °C
- ΔH°b ([16]; 100 μM JQ1 vs DMSO): -2.2 kcal/mol
- ΔG° [17]: -11.5 kcal/mol
- −TΔS° [17]: -7.36 kcal/mol
- ΔTm [17, 38]: 5.1 ± 0.2 °C
- ΔH°b ([17]; 100 μM JQ1 vs DMSO): -4.16 kcal/mol
- ΔG° [18]: -11.8 kcal/mol
- −TΔS° [18]: -7.6 kcal/mol
- ΔTm [18, 38]: 6.9 ± 0.4 °C
- ΔH°b ([18]; 100 μM JQ1 vs DMSO): -4.23 kcal/mol
- ΔTm [19]: 3.1 ± 0.6 °C
- ΔG° [20]: -12.3 kcal/mol
- −TΔS° [20]: -7.84 kcal/mol
- ΔTm [20, 38]: 9.8 ± 0.3 °C
- ΔH°b ([20]; 100 μM JQ1 vs DMSO): -4.47 kcal/mol
- ΔTm [21]: 3.3 ± 0.4 °C
- ΔG° [22]: -12.3 kcal/mol
- −TΔS° [22]: -9.89 kcal/mol
- ΔTm [22, 38]: 9.5 ± 0.6 °C
- ΔH°b ([22]; 100 μM JQ1 vs DMSO): -2.37 kcal/mol
- ΔG° [23]: -12.2 kcal/mol
- −TΔS° [23]: -10.7 kcal/mol
- ΔTm [23, 38]: 9.2 ± 0.6 °C
- ΔH°b ([23]; 100 μM JQ1 vs DMSO): -1.55 kcal/mol
- ΔG° [24]: -11.8 kcal/mol
- −TΔS° [24]: -9.66 kcal/mol
- ΔTm [24, 38]: 6.1 ± 0.3 °C
- ΔH°b ([24]; 100 μM JQ1 vs DMSO): -2.1 kcal/mol
- ΔG° [25]: -10.9 kcal/mol
- −TΔS° [25]: -10.8 kcal/mol
- ΔTm [25, 38]: 3.2 ± 0.3 °C
- ΔH°b ([25]; 100 μM JQ1 vs DMSO): -0.12 kcal/mol
- Kd [26]: 106 ± 13.9 nM
- ΔG [27]: -9.13 kcal/mol
- ΔG [28]: -9.94 kcal/mol
- ΔG [29]: -9.75 kcal/mol
- ΔG [30]: -9.94 kcal/mol
- increase of inhibitory activity vs wild type [31]: 6 fold
- ΔG [31]: -10.5 kcal/mol
- ΔG [32]: -9.39 kcal/mol
- inhibition of BRD4-H4 interaction vs wild type (in words) ([33]; Leu-94 and Asp-145 mutated to alanine): better inhibitor
- inhibition of BRD4-H4 interaction vs wild type (in words) ([33]; P82A): slightly decreased
- protein levels (in words) [34]: dose-dependent and saturable increase of the TR-FRET signals
- EC50 ([34]; read-out: EC50 (protein stabilization)): 100 nM
- EC50 [35]: > 10000 nM
- EC50 [36]: 8400 nM
- tumor inhibition (in words) [37]: inhibited
